{
  "source": "patent US20160220567A1",
  "about": "“COMPOSITION FOR TREATING OR PREVENTING BONE DISEASES, COMPRISING HALOFUGINONE AS ACTIVE INGREDIENT” (THE CATHOLIC UNIVERSITY OF KOREA INDUSTRY-ACADEMIC …, priority 2013, published 2016)",
  "key": {"[1]": {"system": "IL-17 production of T cells via IDO in dendritic cells", "test": "IL-17 ELISA in co-culture of halofuginone-stimulated dendritic cells and T cells", "type": "cell-based", "description": "The dendritic cells cultured for 2 days after stimulating with halofuginone and the T cells cultured for 2 days under the condition of differentiating Th17 cells of <2-2> were co-cultured for 2 additional days, and IL-17 was measured using the supernatant by ELISA. That is, the supernatants of the cell cultures were collected and the amount of IL-17 was measured via sandwich ELISA method. To this end, first, the 96-well plate was treated with monoclonal anti-IL-17 ([…]) and reacted at 4° C. overnight, and upon reaction, non-specific binding was blocked using a blocking solution (1% BSA/PBST). Then, IL-17 in a half amount was diluted continuously and used as standards, and the supernatants of cell cultures were reacted at room temperature for 2 hours. Then, the biotinylated anti-IL-17 were reacted at room temperature for 2 hours, washed 4 times, and added with ExtraAvidin-alkaline phosphatase conjugate after dilution, and reacted at room temperature for 2 hours. Subsequently, PNPP/DEA solution was added thereto to develop color and the absorbance was measured at 405 nm."}, "osteoclasts": {"system": "osteoclasts", "test": "Cell cycle during osteoclast differentiation by 7-AAD and BrdU staining", "type": "cell-based, mouse", "conditions": "FIG. 5D", "from_the_text": "Murine bone marrow cells were differentiated for 5 days by stimulating with M-CSF, RANKL, and halofuginone and subjected to TRAP staining according to the method described in Example <1-8> to confirm the number of TRAP positive cells. Additionally, the expression of c-Fos, JunB, and Jpd2 in the bone marrow cells were confirmed by real-time PCR according to the method described in Example <1-6>. Meanwhile, to examine the effect of halofuginone on cell cycle during the process of osteoclast differentiation, osteoclasts were subjected to 7-AAD and BrdU staining."}, "[2]": {"system": "TRAP, NFATc1, b3 integrin, OSCAR, cathepsin K, and MMP9 mRNA", "test": "Real-time PCR of factors associated with osteoclast differentiation in bone marrow cells of arthritis animal model", "type": "in vivo, mouse", "conditions": "bone marrow cells of CIA mice, RANKL treatment, FIG. 4C", "description": "(§1) For the construction of a mouse model with collagen-induced arthritis (hereinafter, referred to as “CIA”), a 6-week old male DBA/1J mouse was subjected to primary immunization by intradermal injection after mixing the bovine type II collagen (hereinafter, referred to as “CII”) and complete Freud's adjuvant (CFA) in an amount of 100 μL, respectively. After a week thereafter, halofuginone was injected intraperitoneally at 3 day intervals at a concentration of 100 μg/kg and 500 μg/kg, respectively (9 weeks).\nThe real-time PCR was performed using the LightCycler 2.0 System Instrument and the reaction compounds were prepared by mixing 1 μL of each cDNA, 10 μL of premix Ex Taq as an enzyme for the initiation, and each primer pair to a final volume of 20 μL using distilled water. The reaction conditions were: reacted at 95° C. for 10 minutes, followed by a total of 50 cycles consisting of denaturation at 95° C. for 10 seconds, annealing at 60° C. for 5 seconds, and extension at 72° C. for 10 seconds. The values of cycle threshold (Ct) were analyzed and the amount of mRNA expression for each target was indicated in terms of the amount of beta-actin mRNA expression and the relative quantity. The primers used are shown below.\n(§2) Accordingly, the present inventors isolated bone marrow cells from the joint of the animal model with arthritis, cultured the cells under the stimulation of M-CSF and RANKL for 7 days, and subjected them to TRAP staining using the leukocyte acid phosphatase Kit (387-A, Sigma, St. Louis, Mo., USA) according to the manufacturer's manual.\nThe primers used are shown below."}, "[3]": {"system": "murine bone marrow cells differentiating into osteoclasts", "test": "Murine bone marrow cell osteoclast differentiation (M-CSF, RANKL): TRAP staining and real-time PCR", "type": "cell-based, mouse", "conditions": "5 days", "description": "For test animals, 6 to 7-week old male DBA-1 mice were used. […] Bone marrow cells were isolated from the tibia and the femur of mice, and the RBC of the isolated bone marrow cells were lysed, inoculated into a 24-well plate after diluting in 10% Minimum α-MEM to a concentration of 2 ? 10^5 cells/well, and cultured for 12 hours. The adherent cells were removed, stimulated with a macrophage-colony stimulating factor (M-CSF) and cultured for 3 days, and treated with M-CSF (10 ng/mL), receptor activator of NF-κB ligand (RANKL; 50 ng/mL), and halofuginone and cultured for 2 days. The medium was replaced in 2 days, retreated in the same manner, and cultured for 2 days.\nMurine bone marrow cells were differentiated for 5 days by stimulating with M-CSF, RANKL, and halofuginone and subjected to TRAP staining according to the method described in Example <1-8> to confirm the number of TRAP positive cells. Additionally, the expression of c-Fos, JunB, and Jpd2 in the bone marrow cells were confirmed by real-time PCR according to the method described in Example <1-6>."}, "[4]": {"system": "Th17, Th1 and Th2 cells from splenocytes", "test": "Differentiation of Th17-, Th1-, and Th2 cells from mouse splenocytes by halofuginone treatment", "type": "cell-based", "description": "Splenocytes were obtained from mice, that is, the spleens removed from the mice and the spleen tissues were thinly ground using a tearing slide and the red blood cells (RBC) in the splenocytes were removed with the RBC lysis solution. Then, PBS buffer solution was added thereto, and the mixture was centrifuged, and washed to obtain splenocytes. Then, the singe cells (1 ? 10^6) isolated from the spleens were aliquoted into a 24-well plate coated with anti-CD3 antibody (1 μg/mL) were treated under the condition of capable of stimulating Th17 cells (anti-CD28 antibody (1 μg/mL), TGF-β (2 ng/ mL), IL-6 (20 ng/mL), anti-IL-4 (10 μg/mL), and anti-IFN-γ (10 μg/mL); the condition of capable of stimulating Th1 cells (anti-CD28 antibody (1 μg/mL), IL-12 (10 ng/mL), and anti-IL-4 (10 μg/mL)); or the condition of capable of stimulating Th2 cells (anti-CD28 antibody (1 μg/mL), IL-4 (10 ng/mL), and anti-IFN-γ (10 μg/mL)); and the cells were cultured for 3 days, and in particular, cultured after treating the cells with halofuginone at respective concentration and cultured. Specifically, DMSO treatment was used for the control group."}, "[5]": {"system": "bone marrow cells differentiating into osteoclasts", "test": "TRAP staining of bone marrow cells from arthritis animal model cultured with M-CSF and RANKL", "type": "in vivo, mouse", "conditions": "bone marrow cells from treated CIA mice, cultured with M-CSF and RANKL for 7 days, FIG. 4B", "description": "as §1, §2"}, "[6]": {"conditions": "condition of differentiating Th17 cells, 3 days, vs DMSO, FIG. 3A"}},
  "data": [
    {"smiles": "O=C(C[C@H]1NCCC[C@@H]1O)Cn1cnc2cc(Br)c(Cl)cc2c1=O", "note": "(racemic) [halofuginone]", "values": [
      {"measurement": "IDO expression in dendritic cells", "setting": "[1]; FIG. 3D legend", "value": "increase"},
      {"measurement": "production of IL-17", "setting": "[1]; T cells co-cultured with dendritic cells co-stimulated with 1-MT (an IDO inhibitor) and halofuginone", "value": "no decrease"},
      {"measurement": "production of IL-17", "setting": "[1]; T cells co-cultured with dendritic cells stimulated with halofuginone, FIG. 3D", "value": "decrease"},
      {"measurement": "progress from G0/G1 into S phase", "setting": "osteoclasts; 7-AAD and BrdU staining", "value": "increased"},
      {"measurement": "expression of ccnd1 encoding Cyclin D1", "setting": "osteoclasts", "value": "increased"},
      {"measurement": "mRNA expression level of MMP9", "setting": "[2]", "value": "decreased"},
      {"measurement": "mRNA expression level of NFATc1", "setting": "[2]", "value": "decreased"},
      {"measurement": "mRNA expression level of OSCAR", "setting": "[2]", "value": "decreased"},
      {"measurement": "mRNA expression level of TRAP", "setting": "[2]", "value": "decreased"},
      {"measurement": "mRNA expression level of b3 integrin", "setting": "[2]", "value": "decreased"},
      {"measurement": "mRNA expression level of cathepsin K", "setting": "[2]", "value": "decreased"},
      {"measurement": "mRNA expression of Jpd2", "setting": "[3]; FIG. 5C", "value": "inhibits"},
      {"measurement": "mRNA expression of JunB", "setting": "[3]; FIG. 5C", "value": "inhibits"},
      {"measurement": "mRNA expression of c-Fos", "setting": "[3]; FIG. 5C", "value": "inhibits"},
      {"measurement": "expression of factors associated with the differentiation of osteoclasts", "setting": "[3]; TRAP staining, FIG. 5A", "value": "inhibits"},
      {"measurement": "Th17 cells", "setting": "[4]; [6]", "value": "inhibited"},
      {"measurement": "Treg cells", "setting": "[4]; [6]", "value": "increased"},
      {"measurement": "production of IL-4", "setting": "[4]; conditions of differentiating Th1 cells, IFN-gamma, and Th2 cells", "value": "did not affect"},
      {"measurement": "number of TRAP positive cells", "setting": "[5]", "value": "decreased"}
    ]}
  ]
}
